Experimental data published in ChEMBL document CHEMBL1158107, “Oleanane and taraxerane glycosides from the roots of Gomphrena macrocephala” (J Nat Prod, 2006).
Active and inactive are the calls of the source. The calls are words filed in the database; no cut-off is given here.

What was measured:
HSC-2 [1] = assay: Cytotoxicity against human HSC2 cells after 24 hrs by MTT assay; type: functional, cell-based; details: HSC-2, 24 h
HSC-2 [2] = assay: Cytotoxicity against human HSC2 cells at 100 uM after 24 hrs by MTT assay; type: functional, cell-based

Row | Compound | IC50 (HSC-2 [1]) [µM] | Activity (HSC-2 [2])
1 | CC1(C)CC[C@]2(C(=O)O)CC=C3[C@](C)([C@@H]2C1)[C@H]1O[C@H]1[C@@H]1[C@@]2(C)CC[C@H](O)C(C)(C)[C@@H]2CC[C@@]31C | 21 | 
2 | COc1cc([C@@H]2c3cc4c(cc3[C@@H](O[C@@H]3O[C@@H]5CO[C@@H](C)O[C@H]5[C@H](O)[C@H]3O)[C@H]3COC(=O)[C@H]23)OCO4)cc(OC)c1O [ETOPOSIDE] | 24 | 
3 | CC1(C)CC[C@@]23CC[C@]4(C)[C@@](OC2=O)([C@@H]3C1)[C@H]1O[C@H]1[C@@H]1[C@@]2(C)CC[C@H](O)C(C)(C)[C@@H]2CC[C@]14C | 21 | 
4 | CC1(C)CC[C@]2(C(=O)O[C@@H]3O[C@H](CO)[C@@H](O)[C@H](O)[C@H]3O)CC=C3[C@](C)([C@@H]2C1)[C@H]1O[C@H]1[C@@H]1[C@@]2(C)CC[C@H](O[C@@H]4O[C@H](C(=O)O)[C@@H](O)[C@H](O)[C@H]4O)C(C)(C)[C@@H]2CC[C@@]31C |  | inactive
5 | CC1(C)CC[C@@]23CC[C@]4(C)[C@@](OC2=O)([C@@H]3C1)[C@H]1O[C@H]1[C@@H]1[C@@]2(C)CC[C@H](O[C@@H]3O[C@H](C(=O)O)[C@@H](O)[C@H](O[C@@H]5O[C@H](CO)[C@H](O)[C@H](O)[C@H]5O)[C@H]3O[C@@H]3O[C@H](CO)[C@@H](O)[C@H](O)[C@H]3O)C(C)(C)[C@@H]2CC[C@]14C |  | inactive
6 | CC1(C)CC[C@@]23CC[C@]4(C)[C@@](OC2=O)([C@@H]3C1)[C@H]1O[C@H]1[C@@H]1[C@@]2(C)CC[C@H](O[C@@H]3O[C@H](C(=O)O)[C@@H](O)[C@H](O)[C@H]3O)C(C)(C)[C@@H]2CC[C@]14C |  | inactive
